Where “and” joins values, the source holds several entries; their conditions need not be identical. Identical values can stand only once. Blank lines part the entries; values can stand above or below the compound they belong to.
Molecular target: T1, mouse TRPM3a2 (mTRPM3) ion channel (Mus musculus, UniProt J9SQF3)
T1 construct: expressed in transfected cells; host or cells: flip-in HEK293
Experiment: TRPM3 ion channel driven Ca2+ uptake, Fluo-4 AM assay (PS-stimulated, overexpressing flip-in HEK293 cells)
Format: cell-based
In short: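 Flip-in HEK293 cells overexpressing mTRPM3α2, loaded with Fluo-4 AM, were added to wells with compound plus 50 μM pregnenolone sulfate in Ca2+-containing Krebs buffer and read immediately (ex 485/em 535 nm). Percent inhibition was scaled between PS-plus-vehicle and positive-control-inhibitor signals.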

[1] = PS (50 μM) stimulated, cpds. 667-751
[2] = PS (50 μM) stimulated Ca2+ influx, HEK293, cpds 300-399
[3] = PS (50 μM) stimulated, cpds. 400-499
[4] = PS (50 μM) stimulated, cpds. 500-599
[5] = PS (50 μM) stimulated, cpds. 600-666
[6] = PS (50 μM) stimulated, cpd 001-199
[7] = PS (50 μM) stimulated Ca2+ influx, HEK293, cpds 200-299

T1 sequence (J9SQF3 1-1709 isoform J9SQF3-12): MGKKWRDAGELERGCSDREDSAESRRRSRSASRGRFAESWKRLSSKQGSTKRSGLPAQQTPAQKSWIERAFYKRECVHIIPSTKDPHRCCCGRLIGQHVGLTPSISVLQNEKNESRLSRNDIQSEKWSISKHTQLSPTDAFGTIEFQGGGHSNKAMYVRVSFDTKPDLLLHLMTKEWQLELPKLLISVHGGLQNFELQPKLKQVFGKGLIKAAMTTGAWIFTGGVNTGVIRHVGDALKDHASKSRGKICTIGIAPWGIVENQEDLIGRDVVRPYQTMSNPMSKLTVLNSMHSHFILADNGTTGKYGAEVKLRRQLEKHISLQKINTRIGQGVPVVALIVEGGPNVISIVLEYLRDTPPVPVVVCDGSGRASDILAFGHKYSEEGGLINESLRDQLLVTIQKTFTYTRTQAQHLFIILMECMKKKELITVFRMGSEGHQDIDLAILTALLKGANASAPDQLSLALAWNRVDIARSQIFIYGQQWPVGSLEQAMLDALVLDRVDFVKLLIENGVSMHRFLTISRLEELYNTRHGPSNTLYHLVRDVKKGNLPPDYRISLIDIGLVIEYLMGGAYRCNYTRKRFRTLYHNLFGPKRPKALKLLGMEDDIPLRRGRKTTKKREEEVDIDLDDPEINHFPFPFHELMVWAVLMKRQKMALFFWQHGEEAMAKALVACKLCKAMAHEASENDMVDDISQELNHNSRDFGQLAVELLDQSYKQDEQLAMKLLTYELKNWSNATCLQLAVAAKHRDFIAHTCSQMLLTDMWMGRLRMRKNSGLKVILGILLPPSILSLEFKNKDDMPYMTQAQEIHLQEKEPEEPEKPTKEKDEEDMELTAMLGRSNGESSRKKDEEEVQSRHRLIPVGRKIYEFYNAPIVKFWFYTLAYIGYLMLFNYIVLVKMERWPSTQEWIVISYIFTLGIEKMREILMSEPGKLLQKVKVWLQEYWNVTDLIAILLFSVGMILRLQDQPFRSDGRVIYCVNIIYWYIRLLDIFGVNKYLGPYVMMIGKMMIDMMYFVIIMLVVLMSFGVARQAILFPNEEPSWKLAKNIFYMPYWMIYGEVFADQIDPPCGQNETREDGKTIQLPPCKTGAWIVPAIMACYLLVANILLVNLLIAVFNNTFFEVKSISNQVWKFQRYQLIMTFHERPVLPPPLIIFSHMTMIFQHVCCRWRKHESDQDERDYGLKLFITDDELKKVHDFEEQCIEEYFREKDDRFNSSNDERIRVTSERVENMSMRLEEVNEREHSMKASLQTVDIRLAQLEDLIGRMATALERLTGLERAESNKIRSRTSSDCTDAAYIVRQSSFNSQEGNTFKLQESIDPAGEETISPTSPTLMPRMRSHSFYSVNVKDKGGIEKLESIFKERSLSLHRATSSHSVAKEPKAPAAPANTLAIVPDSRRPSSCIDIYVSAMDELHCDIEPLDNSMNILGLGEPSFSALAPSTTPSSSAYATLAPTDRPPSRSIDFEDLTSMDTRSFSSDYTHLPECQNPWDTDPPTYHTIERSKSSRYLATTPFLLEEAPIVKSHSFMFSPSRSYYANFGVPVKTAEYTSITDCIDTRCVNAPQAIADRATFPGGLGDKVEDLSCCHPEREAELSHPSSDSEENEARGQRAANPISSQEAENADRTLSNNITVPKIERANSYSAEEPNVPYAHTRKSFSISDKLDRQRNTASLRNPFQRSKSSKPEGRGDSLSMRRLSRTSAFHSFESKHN

SMILES: Cc1ncsc1COc1ccc2oc(C)c(C(=O)NC(Cn3cncn3)C(N)=O)c2c1 (single isomer, unassigned) [729 - En 2]
IC50 [1]: ≤ 1000 nM

SMILES: Cc1oc2ccc(OCc3c[nH]nc3C(F)(F)F)cc2c1C(=O)NC1(CO)CCCNC1=O (single isomer, unassigned) [731 - En 1]
IC50 [1]: ≤ 1000 nM

SMILES: Cc1oc2ccc(OCc3cccnc3C(F)F)cc2c1C(=O)NC1(CO)CCNC1=O (single isomer, unassigned) [736 - En 1]
IC50 [1]: ≤ 1000 nM

SMILES: Cc1oc2ccc(OCc3cccnc3C(F)F)cc2c1C(=O)NC1(CO)CCCNC1=O (single isomer, unassigned) [737 - En 1]
IC50 [1]: ≤ 1000 nM

SMILES: Cc1oc2ccc(OCc3ccnn3CC(F)F)cc2c1C(=O)NC1(C(N)=O)CCOC1 (single isomer, unassigned) [740 - En 1]
IC50 [1]: ≤ 1000 nM

SMILES: Cc1oc2ccc(OCc3ccnn3CC(F)F)cc2c1C(=O)NC1(C(N)=O)CCOC1 (single isomer, unassigned) [740 - En 2]
IC50 [1]: ≤ 1000 nM

SMILES: Cc1ncc(COc2ccc3oc(C)c(C(=O)N[C@@H](CO)c4nc5ccccc5[nH]4)c3c2)s1 [401 - En 1, (R)-N-(1-(1H-benzo[d]imidazol-2-yl)-2-hydroxyethyl)-2-methyl-5-((2-methylthiazol-5-yl)methoxy)benzofuran-3-carboxamide]
IC50 [3]: ≤ 1000 nM

SMILES: Cc1ncsc1COc1ccc2oc(C)c(C(=O)NC3CCN(CCOCCO)C3=O)c2c1 (stereo not drawn) [402 - En 1]
IC50 [3]: 1000 to 20000 nM

SMILES: Cc1ncsc1COc1ccc2oc(C)c(C(=O)NC(COC(F)F)C(N)=O)c2c1 (stereo not drawn) [448 - En 1]
IC50 [3]: ≤ 1000 nM

SMILES: Cc1ncsc1COc1ccc2oc(C)c(C(=O)NC(CCO)C(N)=O)c2c1 (stereo not drawn) [469 - En 1]
IC50 [3]: ≤ 1000 nM

SMILES: Cc1ncc(COc2ccc3oc(C)c(C(=O)NC4(CO)CCNC4=O)c3c2)o1 (stereo not drawn) [515 - En 1]
IC50 [4]: ≤ 1000 nM and 1000 to 20000 nM

SMILES: Cc1ncc(COc2ccc3oc(C)c(C(=O)NC4(CO)CCNC4=O)c3c2)s1 (stereo not drawn) [517 - En 1]
IC50 [4]: ≤ 1000 nM

SMILES: Cc1ncsc1COc1ccc2oc(C)c(C(=O)NCC(C(N)=O)N(C)C)c2c1 (stereo not drawn) [575 - En 1]
IC50 [4]: ≤ 1000 nM

SMILES: Cc1oc2ccc(OCc3nccs3)cc2c1C(=O)NC1CCNC1=O (stereo not drawn) [compound 036, 2-methyl-N-(2-oxopyrrolidin-3-yl)-5-(thiazol-2-ylmethoxy)benzofuran-3-carboxamide]
IC50 [6]: ≤ 1000 nM

SMILES: COc1ncccc1COc1ccc2oc(C)c(C(=O)NC3CCNC3=O)c2c1 (stereo not drawn) [compound 046, 5-((2-methoxypyridin-3-yl)methoxy)-2-methyl-N-(2-oxopyrrolidin-3-yl)benzofuran-3-carboxamide]
IC50 [6]: ≤ 1000 nM

SMILES: Cc1ncsc1COc1cc(F)c2oc(C)c(C(=O)NC3(CO)CCOCC3)c2c1 [compound 122, 7-fluoro-N-(4-(hydroxymethyl)tetrahydro-2H-pyran-4-yl)-2-methyl-5-((4-methylthiazol-5-yl)-methoxy)benzofuran-3-carboxamide]
IC50 [6]: 1000 to 20000 nM

SMILES: Cc1cc2oc(C)c(C(=O)NC3(CO)CCOCC3)c2cc1OCc1scnc1C [compound 185, N-(4-(hydroxymethyl)tetrahydro-2H-pyran-4-yl)-2,6-dimethyl-5-((4-methylthiazol-5-yl)methoxy)-benzofuran-3-carboxamide]
IC50 [6]: 1000 to 20000 nM

SMILES: Cc1ncsc1COc1cc(C)c2oc(C)c(C(=O)NC3(CO)CCOCC3)c2c1 [compound 186, N-(4-(hydroxymethyl)tetrahydro-2H-pyran-4-yl)-2,7-dimethyl-5-((4-methylthiazol-5-yl)methoxy)benzofuran-3-carboxamide]
IC50 [6]: 1000 to 20000 nM

SMILES: Cc1ncsc1COc1cc(C#N)c2oc(C)c(C(=O)NC3(CO)CCOCC3)c2c1 [compound 188, 7-cyano-N-(4-(hydroxymethyl)tetrahydro-2H-pyran-4-yl)-2-methyl-5-((4-methylthiazol-5-yl)methoxy)benzofuran-3-carboxamide]
IC50 [6]: 1000 to 20000 nM

SMILES: Cc1oc2ccc(OCc3cccnc3C(F)(F)F)cc2c1C(=O)NC1(CO)CNC1 [compound 202, N-(3-(hydroxymethyl)azetidin-3-yl)-2-methyl-5-((2-(trifluoromethyl)pyridin-3-yl)methoxy)benzo-furan-3-carboxamide]
IC50 [7]: 1000 to 20000 nM

SMILES: Cc1oc2ccc(OCc3cccnc3O)c(F)c2c1C(=O)NC1(CO)CCOCC1 [compound 329, 4-fluoro-N-(4-(hydroxymethyl)tetrahydro-2H-pyran-4-yl)-2-methyl-5-((2-oxo-1,2-dihydropyridin-3-yl)methoxy)benzofuran-3-carboxamide]
IC50 [2]: 1000 to 20000 nM

SMILES: Cc1ncsc1COc1ccc2oc(C)c(C(=O)N(C)C3(C(N)=O)COC3)c2c1 [compound 589, N-(3-carbamoyloxetan-3-yl)-N,2-dimethyl-5-((4-methylthiazol-5-yl)methoxy)benzofuran-3-carboxamide]
IC50 [4]: ≤ 1000 nM

SMILES: Cc1ncsc1COc1ccc2oc(C)c(C(=O)N(C)C3(C#N)COC3)c2c1 [compound 599, N-(3-cyanooxetan-3-yl)-N,2-dimethyl-5-((4-methylthiazol-5-yl)methoxy)benzofuran-3-carboxamide]
IC50 [4]: 1000 to 20000 nM

More lines, now with the values ahead:

IC50 [1]: ≤ 1000 nM
SMILES: Cc1oc2ccc(OCc3ccnn3C)cc2c1C(=O)NC1(CO)CCCNC1=O (single isomer, unassigned) [732 - En 1]

IC50 [1]: ≤ 1000 nM
SMILES: Cc1oc2ccc(OCc3ccnn3C)cc2c1C(=O)NC1(CO)CCNC1=O (single isomer, unassigned) [733 - En 1]

IC50 [1]: ≤ 1000 nM
SMILES: Cc1oc2ccc(OCc3cccnn3)cc2c1C(=O)NC1(CO)CCNC1=O (single isomer, unassigned) [734 - En 1]

IC50 [1]: 1000 to 20000 nM
SMILES: Cc1oc2ccc(OCc3cccnn3)cc2c1C(=O)NC1(CO)CCNC1=O (single isomer, unassigned) [734 - En 2]

IC50 [1]: ≤ 1000 nM
SMILES: Cc1oc2ccc(OCc3ccc(F)cn3)cc2c1C(=O)NC1(CO)CCNC1=O (single isomer, unassigned) [735 - En 1]

IC50 [2]: ≤ 1000 nM
SMILES: Cc1oc2ccc(OCc3cccnc3O)cc2c1C(=O)NC1COCC1O (stereo not drawn) [350 - En 1]

IC50 [3]: ≤ 1000 nM
SMILES: Cc1ncc(COc2ccc3oc(C)c(C(=O)NC(C)C(N)=O)c3c2)s1 (stereo not drawn) [434 - En 2]

IC50 [3]: ≤ 1000 nM
SMILES: Cc1oc2ccc(OCc3ccccn3)cc2c1C(=O)NC(C)C(N)=O (stereo not drawn) [435 - En 2]

IC50 [3]: ≤ 1000 nM
SMILES: Cc1oc2ccc(OCc3ccccn3)cc2c1C(=O)NC(CO)C(N)=O (stereo not drawn) [455 - En 2]

IC50 [5]: 1000 to 20000 nM
SMILES: Cc1oc2ccc(OCc3nccn3C)cc2c1C(=O)NC1COCC1O (stereo not drawn) [653 - En 1]

IC50 [5]: 1000 to 20000 nM
SMILES: Cc1oc2ccc(OCc3nccn3C)cc2c1C(=O)NC1COCC1O (stereo not drawn) [654 - En 2]

IC50 [7]: 1000 to 20000 nM
SMILES: Cc1ncsc1COc1ccc2oc(C)c(C(=O)NC3(CO)CNC3)c2c1 [compound 201, N-(3-(hydroxymethyl)azetidin-3-yl)-2-methyl-5-((4-methylthiazol-5-yl)methoxy)benzofuran-3-carboxamide]

IC50 [6]: 1000 to 20000 nM
SMILES: Cc1oc2ccc(OCc3ccoc3)cc2c1C(=O)O [cpd 001, 5-(furan-3-ylmethoxy)-2-methylbenzofuran-3-carboxylic acid]

IC50 [6]: ≥ 20000 nM
SMILES: Cc1oc2ccc(OCc3cnco3)cc2c1C(=O)O [cpd 002, 2-methyl-5-(oxazol-5-ylmethoxy)benzofuran-3-carboxylic acid]

IC50 [6]: 1000 to 20000 nM
SMILES: Cc1oc2ccc(OCc3ccccn3)cc2c1C(=O)O [cpd 005, 2-methyl-5-(pyridin-2-ylmethoxy)benzofuran-3-carboxylic acid]

IC50 [6]: 1000 to 20000 nM
SMILES: Cc1oc2ccc(OCc3cccnc3)cc2c1C(=O)O [cpd 006, 2-methyl-5-(pyridin-3-ylmethoxy)benzofuran-3-carboxylic acid]

IC50 [6]: 1000 to 20000 nM
SMILES: Cc1oc2ccc(OCc3cccnn3)cc2c1C(=O)O [cpd 007, 2-methyl-5-(pyridazin-3-ylmethoxy)benzofuran-3-carboxylic acid]

IC50 [6]: 1000 to 20000 nM
SMILES: Cc1oc2ccc(OCc3ccn(C)n3)cc2c1C(=O)O [cpd 009, 2-methyl-5-((1-methyl-1H-pyrazol-3-yl)methoxy)benzofuran-3-carboxylic acid]

IC50 [6]: 1000 to 20000 nM
SMILES: Cc1oc2ccc(OCc3cnn(C)c3)cc2c1C(=O)O [cpd 010, 2-methyl-5-((1-methyl-1H-pyrazol-4-yl)methoxy)benzofuran-3-carboxylic acid]

IC50 [6]: 1000 to 20000 nM
SMILES: Cc1oc2ccc(OCc3ccsc3)cc2c1C(=O)O [cpd 011, 2-methyl-5-(thiophen-3-ylmethoxy)benzofuran-3-carboxylic acid]

IC50 [6]: 1000 to 20000 nM
SMILES: Cc1oc2ccc(OCc3cccs3)cc2c1C(=O)O [cpd 012, 2-methyl-5-(thiophen-2-ylmethoxy)benzofuran-3-carboxylic acid]

IC50 [6]: 1000 to 20000 nM
SMILES: Cc1oc2ccc(OCc3nccs3)cc2c1C(=O)O [cpd 013, 2-methyl-5-(thiazol-2-ylmethoxy)benzofuran-3-carboxylic acid]

IC50 [6]: 1000 to 20000 nM
SMILES: Cc1oc2ccc(OCc3cncs3)cc2c1C(=O)O [cpd 014, 2-methyl-5-(thiazol-5-ylmethoxy)benzofuran-3-carboxylic acid]

IC50 [6]: 1000 to 20000 nM
SMILES: Cc1oc2ccc(OCC3CCOCC3)cc2c1C(=O)O [cpd 015, 2-methyl-5-((tetrahydro-2H-pyran-4-yl)methoxy)benzofuran-3-carboxylic acid]

IC50 [6]: 1000 to 20000 nM
SMILES: Cc1oc2ccc(OCc3ccc(C(F)(F)F)o3)cc2c1C(=O)O [cpd 018, 2-methyl-5-((5-(trifluoromethyl)furan-2-yl)methoxy)benzofuran-3-carboxylic acid]

IC50 [6]: 1000 to 20000 nM
SMILES: Cc1oc2ccc(OCc3cnco3)cc2c1C(=O)N[C@H]1CCNC1 [cpd 020, (S)-2-methyl-5-(oxazol-5-ylmethoxy)-N-(pyrrolidin-3-yl)benzofuran-3-carboxamide]

IC50 [6]: 1000 to 20000 nM
SMILES: Cc1oc2ccc(OCc3ccncc3)cc2c1C(=O)N[C@H]1CCNC1 [cpd 021, (S)-2-methyl-5-(pyridin-4-ylmethoxy)-N-(pyrrolidin-3-yl)benzofuran-3-carboxamide]

IC50 [6]: 1000 to 20000 nM
SMILES: Cc1oc2ccc(OCc3ccn(C)n3)cc2c1C(=O)N[C@H]1CCNC1 [cpd 023, (S)-2-methyl-5-((1-methyl-1H-pyrazol-3-yl)methoxy)-N-(pyrrolidin-3-yl)benzofuran-3-carboxamide]
